Target: 5-HT2AR (Homo sapiens, UniProt P28223)
Assay: Inhibition of 5-HT
Type: cell-based
Conditions: inhibition of 1 μM 5-HT-evoked Cai2+ release; compared with parent (+)-M100907

5-HT2AR, sequence (P28223 whole entry): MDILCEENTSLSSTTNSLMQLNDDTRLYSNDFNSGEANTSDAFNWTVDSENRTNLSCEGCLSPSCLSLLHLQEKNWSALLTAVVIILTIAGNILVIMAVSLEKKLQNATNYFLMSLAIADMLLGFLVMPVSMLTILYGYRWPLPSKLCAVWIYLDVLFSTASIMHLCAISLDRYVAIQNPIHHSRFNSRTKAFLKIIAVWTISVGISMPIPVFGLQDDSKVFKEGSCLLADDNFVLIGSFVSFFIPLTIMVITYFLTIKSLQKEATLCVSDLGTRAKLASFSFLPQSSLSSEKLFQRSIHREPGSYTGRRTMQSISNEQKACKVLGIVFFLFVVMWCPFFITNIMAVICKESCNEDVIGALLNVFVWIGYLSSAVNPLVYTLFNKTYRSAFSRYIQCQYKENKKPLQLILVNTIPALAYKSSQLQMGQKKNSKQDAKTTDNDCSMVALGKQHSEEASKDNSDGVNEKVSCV

Row | Compound | antagonist activity / potency in words
1 | COc1c(OCCOCCN=[N+]=[N-])cccc1[C@H](O)C1CCN(CCc2ccc(F)cc2)CC1 [Compound 4] | retained antagonist activity
2 | C#CCOCCOCCOc1cccc([C@H](O)C2CCN(CCc3ccc(F)cc3)CC2)c1OC [Compound 5] | slightly lower potency
3 | COc1c(OCCOCCOc2cn(CCOCCOc3cccc([C@H](O)C4CCN(CCc5ccc(F)cc5)CC4)c3OC)nn2)cccc1[C@H](O)C1CCN(CCc2ccc(F)cc2)CC1 [Compound 15] | slightly lower potency

Source: PMC6613932 (Bioorganic & medicinal chemistry letters, 2018)
